Assay results from patent US12414927B2, “CXCR5 antagonists and methods of treating diseases or disorders using same” (YALE UNIVERSITY, priority 2020, dated 2025).
Entries after “also recorded” stand apart in the source; their conditions may differ.

Legend:
Raji cell line = experiment: Proliferation of CXCR5-expressing Burkitt's B-cell lymphoma cell line over 7 days; format: cell-based; conditions: 7-day period, media containing 5% FBS, various doses, DMSO negative control
Source text: FIG. 3 illustrates proliferation of the CXCR5-expressing Burkitt's B-cell lymphoma cell line (Raji cell line) over a 7-day period in the media containing 5% FBS in the presence of various doses of Compound 2 or Compound 3 (1-(2-isobutyl-3-methylbenzamido)-2,3-dihydro-1H-indene-1-carboxylic acid). […] DMSO is shown as a negative control.
At this time a Tfh or AITL cell line has not been developed. Thus, a B-cell lymphoma cell line (Raji) was used to determine whether the contemplated compounds can inhibit proliferation. In this experiment, Compound 2 was compared to analogue Compound 3 over a 7-day period (FIG. 3).

[1] = Preliminary toxicity/tolerability study, 40 mg/kg BID by oral gavage; format: in vivo, NSG mice
Method: FIG. 8 illustrates absolute body weight for mice treated with Compound 2, 40 mg/kg BID. 5 NSG mice (highly immunodeficient, same strain as in the in vivo efficacy study) were tested. Compound 2 was administered via oral gavage, BID (twice a day) for 14 days. […] Body weight was monitored daily. Mean body weight loss was <4%, confirming tolerability.
It was decided that a dose of 40 mg/kg would be used in the AITL PDX studies (design outlined in FIG. 6). Prior to the study, preliminary 1-week toxicity studies were performed on the NSG immunocompromised mice (NOD/SCID, IL-2R knockout) that would be used on the AITL PDX study (FIG. 8).

[2] = In vivo PK, oral doses of 10, 30 and 60 mg/kg; set-up: species or system female CB.17 SCID mice; conditions: oral 10, 30 and 60 mg/kg
Method: FIG. 5 illustrates in vivo PK results for multiple doses of Compound 2 administered orally. 9 female CB.17 SCID mice per group were used except for vehicle control group, where 15 mice were tested. Three drug doses were used (10, 30 and 60 mg/kg), with dosing volume of 10 mL/kg (0.200 mL/20 g mouse) for each dose. Volume was adjusted for body weight, and analysis was run at 6 different time points.
(§1) For suitability of murine AITL patient derived xenografts (PDX) studies, pharmacokinetics (PK) of Compound 2 were determined by IV, oral, and IP administration (FIG. 4). These parameters provided confidence for oral administration studies at different doses and are suitable for further PK studies at 24-hour measurement at different oral doses. The study allowed one to determine the dose that results in a blood level of ˜IC80.

human CXCR5 [3] = molecular target: T1, human CXCR5 (Homo sapiens, UniProt P32302); experiment: Calcium assay: inhibition of Gaq-mediated Ca2+ flux at an EC80 of CXCL13 agonist; format: cell-based; conditions: HEK-293 cells transfected with human CXCR5, in the presence or absence of BSA
T1 construct: expressed in transfected cells; host or cells: HEK-293 (division-arrested, stably expressing)
T1 sequence (P32302 1-372): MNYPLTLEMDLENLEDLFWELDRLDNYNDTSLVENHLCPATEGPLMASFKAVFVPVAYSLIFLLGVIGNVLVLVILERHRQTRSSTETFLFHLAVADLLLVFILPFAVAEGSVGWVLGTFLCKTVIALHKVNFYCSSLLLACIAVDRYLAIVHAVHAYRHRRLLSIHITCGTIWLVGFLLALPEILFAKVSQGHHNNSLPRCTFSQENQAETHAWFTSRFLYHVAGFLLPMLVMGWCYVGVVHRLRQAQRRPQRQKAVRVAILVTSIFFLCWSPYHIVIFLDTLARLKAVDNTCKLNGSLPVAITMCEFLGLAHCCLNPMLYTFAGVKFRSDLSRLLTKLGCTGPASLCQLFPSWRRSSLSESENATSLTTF
Method: FIGS. 1A-1B illustrate inhibition of Gaq-mediated Ca^2+ flux for certain compounds of the disclosure. The assays use HEK cells stably expressing functional human CXCR5 and measure inhibition of Gaq-mediated Ca^2+ flux at an EC80 of CXCL13 agonist. Assays were performed in HBSS buffer (FIG. 1A) and HBSS buffer+1% BSA (FIG. 1B); the compounds were active in the presence of the bovine serum albumin, without significant change in an IC50 value. Compound 1 is 2-(3-methyl-2-(2-methylprop-1-en-1-yl)benzamido)-2,3-dihydro-1H-indene-2-carboxylic acid; Compound 2 is 2-(2-isobutyl-3-methylbenzamido)-2,3-dihydro-1H-indene-2-carboxylic acid.
(§2) These assays were performed in division-arrested HEK-293 cells transfected with human CXCR5. The CXCL13 ligand was used as agonist.
The calcium assay allows homogeneous measurement of intracellular calcium changes caused by activation of G-protein coupled receptors or calcium channels.
For adherent cells, plate 50K to 70K cells/well for a 96 well plate and 12K to 20K cells/well for a 384 well plate the day before the experiment. Add 100 μl/well of cell suspension to 96-well plates or 25 μl/well to 384-well plates, allow cells to attach and grow overnight for 16 to 24 hours in cell culture incubators. Prior to dye loading the plate, examine the cells for confluency and overall health.
1. […]

[4] = 10-day oral dosing PK/tolerability study, 30 mg/kg every 12 hours; format: in vivo, female CB.17 SCID mice
Method: FIG. 6 illustrates a dosing scheme for oral administration of Compound 2 over 10 days. Female CB.17 SCID mice were dosed according to the table shown: Groups 1-2 were treated with the drug and Group 3 animals were treated with vehicle control. Mice were orally dosed at 30 mg/kg every 12 hours for 10 days. Group 2 (18 animals total, alternating animals) were used for PK blood analysis, and Group 1 (5 animals total) were sacrificed at end point for gross necropsy.
FIGS. 7A-7B illustrate in vivo PK results for multiple doses of Compound 2 (30 mg/kg) administered orally over 10 days. […] No change in slope of decrease indicated no change in rate of metabolism.
as §1

human CXCR5 [5] = molecular target: T1, human CXCR5; experiment: Binding to human CXCR5
[6] = In vivo PK, single dose by IV, PO or IP route
Method: Three groups of 30 mice (male, CD-1) were dosed via one route per group (PO, IP, or IV). Single dose level was used per route of administration. Dosing level (mg/kg): IV (1 mg/kg); PO (10 mg/kg); and IP (10 mg/kg). […] Blood collections were terminal for each mouse, so triplicate data was obtained for each time point.

[7] = tested on: patient-derived AITL tissue; experiment: In vivo efficacy in AITL patient-derived xenograft (human CD45+ cells)
Method: FIGS. 9A-9B illustrate CD45 levels in bone marrow (FIG. 9A) and peripheral blood (FIG. 9B) of mice treated with Compound 2 or vehicle. […] (NOD/SCID, IL-2R knockout) mice (8 animals per group) were implanted with patient-derived AITL tissue. Compound 2 binds to human but not to murine CXCR5. Animals were treated with vehicle or 40 mg/kg Compound 2 via oral gavage 2×/day. t test comparing all mice at the time of sacrifice was performed to analyze the data. Error bars—SEM.
For in vivo efficacy study, mice were implanted with AITL PDX and engraftment levels were quantified in each animal as circulating human CD45+ cells levels in blood. Dosing began when average engraftment reached 0.13%, and the cohort was treated for 42 days. The mice were monitored weekly for weight loss and daily for any clinical mortality observation. Only 1 treated mouse lost weight (14%) during the first week but gained it back and was otherwise stable similar to the other mice. Blood was drawn at 0, 14, and 28 days after the dosing started, and before euthanasia to measure tumor burden. […] When mice were sacrificed, various organs were removed and stored at −80° C. At the end of the study (42 days of dosing), 3 and 5 mice treated with vehicle or Compound 2, respectively, were still alive. […] The absolute percentage in the blood was 44.5% and 57.6% for treated and untreated mice, respectively.
PDX was implanted into immunocompromised NSG mice.
Starting at around 21 days after implantation, animals are examined for engraftment every 1-2 weeks. Engraftment is determined by measuring human CD45+ cells in blood (flow cytometry).
After engraftment is observed, animals are dosed by oral gavage every 10-14 hours with vehicle (untreated groups) or with compound YU241279 at 40 mg/kg (treated groups).
Animals are evaluated for general health daily and weighed twice per week; circulating human CD45+ cells are measured on days 14 and 28 after treatment initiation to evaluate tumor progression. Based on day 28 analysis, treatment may be extended (the decision to extend the dosing is based on the health status of the vehicle group: CD45 (<50%), lack of morbidity by day 28); Readouts at conclusion of the study include spleen weight, survival, and flow cytometry assessment for human CD45+ cells in blood and bone marrow.

murine CXCR5 = molecular target: T2, murine CXCR5 (Mus musculus, UniProt Q04683); experiment: Binding to murine CXCR5
T2 sequence (Q04683 1-374): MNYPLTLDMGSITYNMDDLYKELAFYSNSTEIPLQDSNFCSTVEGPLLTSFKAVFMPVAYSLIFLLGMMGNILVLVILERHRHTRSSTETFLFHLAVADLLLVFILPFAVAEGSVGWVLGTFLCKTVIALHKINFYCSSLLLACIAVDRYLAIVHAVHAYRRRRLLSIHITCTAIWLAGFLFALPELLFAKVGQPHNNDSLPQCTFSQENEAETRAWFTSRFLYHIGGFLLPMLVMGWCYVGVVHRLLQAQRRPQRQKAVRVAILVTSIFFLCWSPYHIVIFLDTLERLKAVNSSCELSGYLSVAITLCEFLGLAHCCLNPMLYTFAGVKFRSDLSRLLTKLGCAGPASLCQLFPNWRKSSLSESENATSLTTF

human CXCR5 [8] = molecular target: T1, human CXCR5; experiment: Cyclic AMP assay: inhibition of Gai-mediated decrease of cAMP at an EC80 of CXCL13; format: cell-based; conditions: HEK-293 cells transfected with human CXCR5, in the presence or absence of BSA
Method: FIGS. 2A-2B illustrate inhibition of Gat-mediated decrease of cAMP for certain compounds of the disclosure. The assays use HEK cells stably expressing functional human CXCR5 and measure inhibition of Gat-mediated decrease of cAMP at an EC80 of CXCL13. Assays were performed in HBSS buffer (FIG. 2A) and HBSS buffer+1% BSA (FIG. 2B); the compounds were active in the presence of the bovine serum albumin, without significant change in an IC50 value.
as §2

[9] = 40 mg/kg oral gavage BID for 14 days, 5 NSG mice
[10] = 40 mg/ml (so in the source), NSG mice
[11] = at death, 40 mg/kg oral, treated mice

SMILES: Cc1cccc(C(=O)NC2(C(=O)O)CCc3ccccc32)c1CC(C)C (stereo not shown) [Compound 3, 1-(2-isobutyl-3-methylbenzamido)-2,3-dihydro-1H-indene-1-carboxylic acid]
- proliferation of Raji cells (Raji cell line): less potent than Compound 2

SMILES: Cc1cccc(C(=O)NC2(C(=O)O)Cc3ccccc3C2)c1CC(C)C [Compound 2, 2-(2-isobutyl-3-methylbenzamido)-2,3-dihydro-1H-indene-2-carboxylic acid]
- mean body weight loss [1, 9]: < 4%
- morbidity [1, 9]: No morbidity was observed
- body weight gain compared with vehicle [1, 10]: did not gain weight as fast as the mice treated with vehicle
- other abnormalities [1, 10]: no other abnormalities observed
- compound blood level versus compound amount administered [2]: clear increase in compound blood level versus compound amount administered
- activity in calcium assay (inhibition of Gaq-mediated Ca2+ flux) (human CXCR5 [3]): sub-micromolar
- tolerability ([4]; 10-day study at 30 mg/kg oral): demonstrated tolerability
- health of animals ([4]; oral 30 mg/kg every 12 hours for 10 days, during dosing and for 2 weeks following): good health
- change of compound metabolism over dosing period ([4]; oral 30 mg/kg every 12 hours, 10 days, first two doses versus 20th dose, 30 mg/kg): compound metabolism was unchanged; also recorded: no change metabolism
- blood levels relative to IC50 between doses ([4]; oral 30 mg/kg, 12 hours between doses): remained above IC50 for full 12 hours
- binding to human CXCR5 (human CXCR5 [5]): binds
- clinical observations ([6]; IV arm subsequently dosed at 0.2 mg/mL delivered at 5 mL/kg): without any adverse observations
- clinical observations ([6]; original IV group, single dose): labored breathing, decreased activity, and death
- bioavailability ([6]; pharmacokinetic study in mice): confirmed bioavailability
- tumor loads in peripheral blood and bone marrow compared to vehicle control ([7]; 40 mg/kg oral gavage 2x/day, at time of sacrifice): Significantly reduced tumor loads
- mice still alive at the end of the study ([7]; 42 days of dosing, 8 animals per group): 5
- absolute percentage of human CD45+ in the blood [7, 11]: 44.5%
- absolute percentage of human CD45+ in the bone marrow [7, 11]: 10.6%
- weight loss of the only treated mouse that lost weight ([7]; first week of dosing, 1 treated mouse, regained afterwards): 14%
- proliferation of Raji cells (Raji cell line): dose-dependent decrease in proliferation; also recorded: clearly inhibited proliferation
- binding to murine CXCR5 (murine CXCR5): not
- activity in cyclic AMP assay (inhibition of decrease of cAMP) (human CXCR5 [8]): sub-micromolar

SMILES: CC(C)=Cc1c(C)cccc1C(=O)NC1(C(=O)O)Cc2ccccc2C1 [Compound 1, 2-(3-methyl-2-(2-methylprop-1-en-1-yl)benzamido)-2,3-dihydro-1H-indene-2-carboxylic acid]
- activity in calcium assay (inhibition of Gaq-mediated Ca2+ flux) (human CXCR5 [3]): sub-micromolar
- activity in cyclic AMP assay (inhibition of decrease of cAMP) (human CXCR5 [8]): sub-micromolar
